According to patent US20230139835A1, “ALLULOSE IN CRYSTALLINE FORM” (SAVANNA INGREDIENTS GMBH, priority 2020, published 2023):

Assays:
[1] = cited from earlier work
[2] = Particle size distribution by dynamic image analysis (Camsizer X2 with X-Jet module); format: physicochemical
Description: Said preferred particle size distribution is determined by means of dynamic image analysis (Camsizer X2 from Retsch with X-Jet module), wherein a dispersion pressure of 5, 20, or 460 kPa was applied. The evaluation was carried out in three size models, namely:
Xc(min) Particle width which is determined from the narrowest of all measured chords xc;
XFe(max) Particle length which is determined from the longest of all measured Feret diameters xFe;
Xarea Equivalent particle diameter which corresponds to the circle equivalent diameter.

| SMILES | Minimum d10 XFe(max) ([2]; dispersion pressure 5 kPa) [μm] | Minimum d10 Xarea ([2]; dispersion pressure 5 kPa) [μm] | Minimum d10 Xc(min) ([2]; dispersion pressure 5 kPa) [μm] | Minimum d50 XFe(max) ([2]; dispersion pressure 5 kPa) [μm] | Minimum d50 Xarea ([2]; dispersion pressure 5 kPa) [μm] | Minimum d50 Xc(min) ([2]; dispersion pressure 5 kPa) [μm] | Minimum d90 XFe(max) ([2]; dispersion pressure 5 kPa) [μm] | Minimum d90 Xarea ([2]; dispersion pressure 5 kPa) [μm] | Minimum d90 Xc(min) ([2]; dispersion pressure 5 kPa) [μm] | Minimum d10 XFe(max) ([2]; dispersion pressure 20 kPa) [μm] | Minimum d10 Xarea ([2]; dispersion pressure 20 kPa) [μm] | Minimum d10 Xc(min) ([2]; dispersion pressure 20 kPa) [μm] | Minimum d50 XFe(max) ([2]; dispersion pressure 20 kPa) [μm] | Minimum d50 Xarea ([2]; dispersion pressure 20 kPa) [μm] | Minimum d50 Xc(min) ([2]; dispersion pressure 20 kPa) [μm] | Minimum d90 XFe(max) ([2]; dispersion pressure 20 kPa) [μm] | Minimum d90 Xarea ([2]; dispersion pressure 20 kPa) [μm] | Minimum d90 Xc(min) ([2]; dispersion pressure 20 kPa) [μm] | Minimum d10 XFe(max) ([2]; dispersion pressure 460 kPa) [μm] | Minimum d10 Xarea ([2]; dispersion pressure 460 kPa) [μm] | also measured |
| --- | --- | --- | --- | --- | --- | --- | --- | --- | --- | --- | --- | --- | --- | --- | --- | --- | --- | --- | --- | --- | --- |
| C=C1C[C@@]23CC[C@H]4[C@@](C)(CCC[C@@]4(C)C(=O)O[C@@H]4O[C@H](CO)[C@@H](O)[C@H](O)[C@H]4O)[C@@H]2CC[C@]1(O[C@@H]1O[C@H](CO)[C@@H](O)[C@H](O)[C@H]1O[C@@H]1O[C@H](CO)[C@@H](O)[C@H](O)[C@H]1O)C3 [stevioside] |  |  |  |  |  |  |  |  |  |  |  |  |  |  |  |  |  |  |  |  | Daily intake considered harmless [1]: up to 4 mg per kilogram of body weight |
| O=C(CO)C(O)C(O)C(O)CO (stereo not shown) [Example 1, allulose] | 105 | 90 | 72 | 230 | 190 | 150 | 350 | 270 | 235 | 75 | 75 | 55 | 220 | 195 | 125 | 335 | 280 | 225 | 10 | 12 | Minimum d10 Xc(min) ([2]; dispersion pressure 460 kPa): 12 μm; Minimum d50 XFe(max) ([2]; dispersion pressure 460 kPa): 70 μm; Minimum d50 Xarea ([2]; dispersion pressure 460 kPa): 55 μm; Minimum d50 Xc(min) ([2]; dispersion pressure 460 kPa): 45 μm; Minimum d90 XFe(max) ([2]; dispersion pressure 460 kPa): 175 μm; Minimum d90 Xarea ([2]; dispersion pressure 460 kPa): 135 μm; Minimum d90 Xc(min) ([2]; dispersion pressure 460 kPa): 135 μm |
| O=C(CO)C(O)C(O)C(O)CO (stereo not shown) [Comparative Example V1, allulose] | 90 | 75 | 60 | 210 | 175 | 130 | 320 | 255 | 215 | 60 | 50 | 40 | 185 | 170 | 110 | 315 | 250 | 210 | 1 | 2 | Minimum d10 Xc(min) ([2]; dispersion pressure 460 kPa): 2 μm; Minimum d50 XFe(max) ([2]; dispersion pressure 460 kPa): 55 μm; Minimum d50 Xarea ([2]; dispersion pressure 460 kPa): 40 μm; Minimum d50 Xc(min) ([2]; dispersion pressure 460 kPa): 30 μm; Minimum d90 XFe(max) ([2]; dispersion pressure 460 kPa): 150 μm; Minimum d90 Xarea ([2]; dispersion pressure 460 kPa): 110 μm; Minimum d90 Xc(min) ([2]; dispersion pressure 460 kPa): 110 μm |
